Test results as given in ChEMBL document CHEMBL1150021, “Alkyl ether analogs of the FK-506 related, immunosuppressive macrolide L-683,590 (ascomycin)” (Bioorg Med Chem Lett, 1994).
pEC50, pIC50: −log10 of the molar value.

Tested on: T-cell
Assay: In vitro evaluation for immunosuppressive activity against proliferation of antigen stimulated murine splenic T cells
Format: functional, cell-based
Conditions: Mus musculus

SMILES | pIC50
CC[C@@H]1/C=C(\C)C[C@H](C)C[C@H](OC)[C@H]2O[C@@](O)(C(=O)C(=O)N3CCCC[C@H]3C(=O)O[C@H](/C(C)=C/[C@@H]3CC[C@@H](OCc4ccco4)[C@H](OC)C3)[C@H](C)[C@@H](O)CC1=O)[C@H](C)C[C@@H]2OC | 7.86
C/C=C(C)/C=C/CO[C@@H]1CC[C@@H](/C=C(\C)[C@H]2OC(=O)[C@@H]3CCCCN3C(=O)C(=O)[C@]3(O)O[C@H]([C@@H](OC)C[C@@H](C)C/C(C)=C/[C@@H](CC)C(=O)C[C@H](O)[C@H]2C)[C@@H](OC)C[C@H]3C)C[C@H]1OC | 8.16
CC[C@@H]1/C=C(\C)C[C@H](C)C[C@H](OC)[C@H]2O[C@@](O)(C(=O)C(=O)N3CCCC[C@H]3C(=O)O[C@H](/C(C)=C/[C@@H]3CC[C@@H](OC/C=C/c4cccc(F)c4)[C@H](OC)C3)[C@H](C)[C@@H](O)CC1=O)[C@H](C)C[C@@H]2OC | 8.60
CC[C@@H]1/C=C(\C)C[C@H](C)C[C@H](OC)[C@H]2O[C@@](O)(C(=O)C(=O)N3CCCC[C@H]3C(=O)O[C@H](/C(C)=C/[C@@H]3CC[C@@H](OC/C=C/c4ccc(Br)cc4)[C@H](OC)C3)[C@H](C)[C@@H](O)CC1=O)[C@H](C)C[C@@H]2OC | 7.84
CC[C@@H]1/C=C(\C)C[C@H](C)C[C@H](OC)[C@H]2O[C@@](O)(C(=O)C(=O)N3CCCC[C@H]3C(=O)O[C@H](/C(C)=C/[C@@H]3CC[C@@H](OCCCc4ccccc4)[C@H](OC)C3)[C@H](C)[C@@H](O)CC1=O)[C@H](C)C[C@@H]2OC | 8.46
CC[C@@H]1/C=C(\C)C[C@H](C)C[C@H](OC)[C@H]2O[C@@](O)(C(=O)C(=O)N3CCCC[C@H]3C(=O)O[C@H](/C(C)=C/[C@@H]3CC[C@@H](OC/C=C/c4ccc(OC)cc4)[C@H](OC)C3)[C@H](C)[C@@H](O)CC1=O)[C@H](C)C[C@@H]2OC | 8.42
CC[C@@H]1/C=C(\C)C[C@H](C)C[C@H](OC)[C@H]2O[C@@](O)(C(=O)C(=O)N3CCCC[C@H]3C(=O)O[C@H](/C(C)=C/[C@@H]3CC[C@@H](OC/C=C/c4cc(F)cc(F)c4)[C@H](OC)C3)[C@H](C)[C@@H](O)CC1=O)[C@H](C)C[C@@H]2OC | 8.41
CC[C@@H]1/C=C(\C)C[C@H](C)C[C@H](OC)[C@H]2O[C@@](O)(C(=O)C(=O)N3CCCC[C@H]3C(=O)O[C@H](/C(C)=C/[C@@H]3CC[C@@H](OCc4ccccc4)[C@H](OC)C3)[C@H](C)[C@@H](O)CC1=O)[C@H](C)C[C@@H]2OC | 8.52
CC#CCO[C@@H]1CC[C@@H](/C=C(\C)[C@H]2OC(=O)[C@@H]3CCCCN3C(=O)C(=O)[C@]3(O)O[C@H]([C@@H](OC)C[C@@H](C)C/C(C)=C/[C@@H](CC)C(=O)C[C@H](O)[C@H]2C)[C@@H](OC)C[C@H]3C)C[C@H]1OC | 8.21
CC[C@@H]1/C=C(\C)C[C@H](C)C[C@H](OC)[C@H]2O[C@@](O)(C(=O)C(=O)N3CCCC[C@H]3C(=O)O[C@H](/C(C)=C/[C@@H]3CC[C@@H](OCc4cccs4)[C@H](OC)C3)[C@H](C)[C@@H](O)CC1=O)[C@H](C)C[C@@H]2OC | 8.15
CC[C@@H]1/C=C(\C)C[C@H](C)C[C@H](OC)[C@H]2O[C@@](O)(C(=O)C(=O)N3CCCC[C@H]3C(=O)O[C@H](/C(C)=C/[C@@H]3CC[C@@H](OC(C)C)[C@H](OC)C3)[C@H](C)[C@@H](O)CC1=O)[C@H](C)C[C@@H]2OC | 7.90
CC[C@@H]1/C=C(\C)C[C@H](C)C[C@H](OC)[C@H]2O[C@@](O)(C(=O)C(=O)N3CCCC[C@H]3C(=O)O[C@H](/C(C)=C/[C@@H]3CC[C@@H](OC(C)c4ccccc4)[C@H](OC)C3)[C@H](C)[C@@H](O)CC1=O)[C@H](C)C[C@@H]2OC (stereo not given in full) | 7.95
CC[C@@H]1/C=C(\C)C[C@H](C)C[C@H](OC)[C@H]2O[C@@](O)(C(=O)C(=O)N3CCCC[C@H]3C(=O)O[C@H](/C(C)=C/[C@@H]3CC[C@@H](OC/C=C/C4CCCCC4)[C@H](OC)C3)[C@H](C)[C@@H](O)CC1=O)[C@H](C)C[C@@H]2OC | 8.26
CC[C@@H]1/C=C(\C)C[C@H](C)C[C@H](OC)[C@H]2O[C@@](O)(C(=O)C(=O)N3CCCC[C@H]3C(=O)O[C@H](/C(C)=C/[C@@H]3CC[C@@H](OC/C=C/c4cccc([N+](=O)[O-])c4)[C@H](OC)C3)[C@H](C)[C@@H](O)CC1=O)[C@H](C)C[C@@H]2OC | 8.72
CC[C@@H]1/C=C(\C)C[C@H](C)C[C@H](OC)[C@H]2O[C@@](O)(C(=O)C(=O)N3CCCC[C@H]3C(=O)O[C@H](/C(C)=C/[C@@H]3CC[C@@H](OC/C=C/c4cccc(O)c4)[C@H](OC)C3)[C@H](C)[C@@H](O)CC1=O)[C@H](C)C[C@@H]2OC | 9.10
CC[C@@H]1/C=C(\C)C[C@H](C)C[C@H](OC)[C@H]2O[C@@](O)(C(=O)C(=O)N3CCCC[C@H]3C(=O)O[C@H](/C(C)=C/[C@@H]3CC[C@@H](OCC#Cc4ccccc4)[C@H](OC)C3)[C@H](C)[C@@H](O)CC1=O)[C@H](C)C[C@@H]2OC | 8.57
CC[C@@H]1/C=C(\C)C[C@H](C)C[C@H](OC)[C@H]2O[C@@](O)(C(=O)C(=O)N3CCCC[C@H]3C(=O)O[C@H](/C(C)=C/[C@@H]3CC[C@@H](OC/C=C/C(C)(C)C)[C@H](OC)C3)[C@H](C)[C@@H](O)CC1=O)[C@H](C)C[C@@H]2OC | 7.85
CC[C@@H]1/C=C(\C)C[C@H](C)C[C@H](OC)[C@H]2O[C@@](O)(C(=O)C(=O)N3CCCC[C@H]3C(=O)O[C@H](/C(C)=C/[C@@H]3CC[C@@H](OC/C(C)=C/c4ccccc4)[C@H](OC)C3)[C@H](C)[C@@H](O)CC1=O)[C@H](C)C[C@@H]2OC | 8.26
CC[C@@H]1/C=C(\C)C[C@H](C)C[C@H](OC)[C@H]2O[C@@](O)(C(=O)C(=O)N3CCCC[C@H]3C(=O)O[C@H](/C(C)=C/[C@@H]3CC[C@@H](OC/C=C/c4ccc(F)cc4)[C@H](OC)C3)[C@H](C)[C@@H](O)CC1=O)[C@H](C)C[C@@H]2OC | 8.26
CC[C@@H]1/C=C(\C)C[C@H](C)C[C@H](OC)[C@H]2O[C@@](O)(C(=O)C(=O)N3CCCC[C@H]3C(=O)O[C@H](/C(C)=C/[C@@H]3CC[C@@H](OC/C=C/c4ccc(Cl)cc4)[C@H](OC)C3)[C@H](C)[C@@H](O)CC1=O)[C@H](C)C[C@@H]2OC | 7.80
C=CC[C@@H]1/C=C(\C)C[C@H](C)C[C@H](OC)[C@H]2O[C@@](O)(C(=O)C(=O)N3CCCC[C@H]3C(=O)O[C@H](/C(C)=C/[C@@H]3CC[C@@H](O)[C@H](OC)C3)[C@H](C)[C@@H](O)CC1=O)[C@H](C)C[C@@H]2OC [TACROLIMUS ANHYDROUS] | 9.54

Target: Peptidyl-prolyl cis-trans isomerase FKBP1A (Homo sapiens, UniProt P62942)
Sequence (P62942 whole entry): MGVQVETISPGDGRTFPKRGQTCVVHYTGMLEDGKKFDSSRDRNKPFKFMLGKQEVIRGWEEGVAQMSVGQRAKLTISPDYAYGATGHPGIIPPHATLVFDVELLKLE
Assay: Ability to bind the major cystolic receptor FK506 binding protein 12 by using competitive binding assay
Conditions: not given

SMILES | pEC50
CC[C@@H]1/C=C(\C)C[C@H](C)C[C@H](OC)[C@H]2O[C@@](O)(C(=O)C(=O)N3CCCC[C@H]3C(=O)O[C@H](/C(C)=C/[C@@H]3CC[C@@H](OC/C=C/c4ccc(Br)cc4)[C@H](OC)C3)[C@H](C)[C@@H](O)CC1=O)[C@H](C)C[C@@H]2OC | 7.64
CC[C@@H]1/C=C(\C)C[C@H](C)C[C@H](OC)[C@H]2O[C@@](O)(C(=O)C(=O)N3CCCC[C@H]3C(=O)O[C@H](/C(C)=C/[C@@H]3CC[C@@H](OC/C=C/c4ccc(O)cc4)[C@H](OC)C3)[C@H](C)[C@@H](O)CC1=O)[C@H](C)C[C@@H]2OC | 7.69
CC[C@@H]1/C=C(\C)C[C@H](C)C[C@H](OC)[C@H]2O[C@@](O)(C(=O)C(=O)N3CCCC[C@H]3C(=O)O[C@H](/C(C)=C/[C@@H]3CC[C@@H](OC/C=C/c4cccc([N+](=O)[O-])c4)[C@H](OC)C3)[C@H](C)[C@@H](O)CC1=O)[C@H](C)C[C@@H]2OC | 7.46
CC[C@@H]1/C=C(\C)C[C@H](C)C[C@H](OC)[C@H]2O[C@@](O)(C(=O)C(=O)N3CCCC[C@H]3C(=O)O[C@H](/C(C)=C/[C@@H]3CC[C@@H](O)[C@H](OC)C3)[C@H](C)[C@@H](O)CC1=O)[C@H](C)C[C@@H]2OC [ASCOMYCIN] | 8.80
